Measured values published in paper PMC10586439 (ACS Omega, 2023).
Where two headings read alike, the source gives them in different places.

Experiments:
[1] = test system: MDA-MB-231 human breast carcinoma cell line; experiment: MTT cytotoxicity assay against MDA-MB-231 breast carcinoma cell line; format: cell-based
β-tubulin = β-tubulin (Homo sapiens, UniProt P07437+P68363); experiment: β-Tubulin polymerization inhibition; format: biochemical; details: read-out: β-tubulin polymerization inhibition percentage
[2] = test system: normal MCF-10A breast cells; experiment: MTT cytotoxicity assay on normal MCF-10A breast cells; format: cell-based; details: for IC50: Homo sapiens, MCF-10A, read-out: IC50 value (μM) MCF-10A
MDA-MB-231 cells [3] = experiment: Cell cycle analysis by flow cytometry; format: cell-based, human
MDA-MB-231 cells [4] = experiment: Annexin V-FITC/PI apoptosis assay by flow cytometry; format: cell-based, human; details: MDA-MB-231, 48 h, compound at its IC50
[5] = MDA-MB-231, 24 h, read-out: IC50 value (μM) MDA-MB-231
[6] = MDA-MB-231, read-out: IC50 against MDA-MB-231 cells

Chain of β-tubulin (P07437 whole entry): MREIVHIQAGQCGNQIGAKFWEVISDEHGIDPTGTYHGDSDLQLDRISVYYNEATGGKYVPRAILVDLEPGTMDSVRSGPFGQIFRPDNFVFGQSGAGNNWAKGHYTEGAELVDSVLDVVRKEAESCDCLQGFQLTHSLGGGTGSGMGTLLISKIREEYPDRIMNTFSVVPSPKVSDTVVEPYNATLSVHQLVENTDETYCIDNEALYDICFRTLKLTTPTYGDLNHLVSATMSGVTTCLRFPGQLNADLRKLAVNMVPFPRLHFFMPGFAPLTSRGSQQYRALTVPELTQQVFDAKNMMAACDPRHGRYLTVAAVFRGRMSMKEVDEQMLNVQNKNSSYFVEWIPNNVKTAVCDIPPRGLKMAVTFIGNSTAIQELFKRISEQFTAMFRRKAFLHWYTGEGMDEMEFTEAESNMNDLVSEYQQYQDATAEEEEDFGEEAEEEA
Chain of β-tubulin (P68363 whole entry): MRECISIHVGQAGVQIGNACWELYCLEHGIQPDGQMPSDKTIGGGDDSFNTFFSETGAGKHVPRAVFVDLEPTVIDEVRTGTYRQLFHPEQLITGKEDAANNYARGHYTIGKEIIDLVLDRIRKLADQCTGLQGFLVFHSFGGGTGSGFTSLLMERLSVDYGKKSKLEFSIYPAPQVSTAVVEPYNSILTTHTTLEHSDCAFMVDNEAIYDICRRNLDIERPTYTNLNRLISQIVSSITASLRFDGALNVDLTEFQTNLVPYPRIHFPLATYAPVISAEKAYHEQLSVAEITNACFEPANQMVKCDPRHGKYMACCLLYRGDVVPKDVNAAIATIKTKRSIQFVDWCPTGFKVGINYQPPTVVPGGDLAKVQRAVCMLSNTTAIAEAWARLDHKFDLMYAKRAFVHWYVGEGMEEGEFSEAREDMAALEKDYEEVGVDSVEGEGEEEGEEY

| inhibition at 25 µM (β-tubulin) [%] | SMILES | IC50 [1, 5] [µM] | also measured |
| --- | --- | --- | --- |
|  | CCCOC(=O)/C(=C/c1ccc(Cl)cc1)NC(=O)c1ccc(OC)c(OC)c1 [5c, (Z)-Propyl 3-(4-Chlorophenyl)-2-(3,4-dimethoxybenzamido)acrylate] | 14.3 ± 0.33 |  |
|  | COc1ccc(C(=O)N/C(=C\c2ccc(Cl)cc2)C(=O)O)cc1OC [4a, (Z)-3-(4-Chlorophenyl)-2-(3,4-dimethoxybenzamido)acrylic Acid] | 8.24 ± 0.37 | IC50 [1, 6]: 8.55 to 15.9 µM |
| 89.8 | COc1ccc(/C=C\c2cc(OC)c(OC)c(OC)c2)cc1O [CA-4, combretastatin A-4, reference compound] | 1.27 | IC50 [2]: 14.2 ± 0.29 µM |
|  | CCOC(=O)/C(=C/c1ccc(Cl)cc1)NC(=O)c1ccc(OC)c(OC)c1 [5b, (Z)-Ethyl 3-(4-Chlorophenyl)-2-(3,4-dimethoxybenzamido)acrylate] | 15.8 ± 0.41 |  |
|  | COc1cc(C(=O)N/C(=C\c2ccc(Cl)cc2)C(=O)OC(C)C)cc(OC)c1OC [5h, (Z)-Isopropyl 3-(4-Chlorophenyl)-2-(3,4,5-trimethoxybenzamido)acrylate] | 25.2 ± 0.51 |  |
|  | CCCCOC(=O)/C(=C/c1ccc(Cl)cc1)NC(=O)c1cc(OC)c(OC)c(OC)c1 [5i, (Z)-Butyl 3-(4-Chlorophenyl)-2-(3,4,5-trimethoxybenzamido)acrylate] | 28.1 ± 0.56 |  |
|  | CCOC(=O)/C(=C/c1ccc(Cl)cc1)NC(=O)c1cc(OC)c(OC)c(OC)c1 [5f, (Z)-Ethyl 3-(4-Chlorophenyl)-2-(3,4,5-trimethoxybenzamido)acrylate] | 11.6 ± 0.24 |  |
|  | CCCOC(=O)/C(=C/c1ccc(Cl)cc1)NC(=O)c1cc(OC)c(OC)c(OC)c1 [5g, (Z)-Propyl 3-(4-Chlorophenyl)-2-(3,4,5-trimethoxybenzamido)acrylate] | 23.2 ± 0.4 |  |
| 77.8 | COC(=O)/C(=C/c1ccc(Cl)cc1)NC(=O)c1cc(OC)c(OC)c(OC)c1 [5e, (Z)-Methyl 3-(4-Chlorophenyl)-2-(3,4,5-trimethoxybenzamido)acrylate] | 4.03 ± 0.16 | IC50 [1, 6]: 4.06 µM |
|  | CCCCOC(=O)/C(=C/c1ccc(Cl)cc1)NC(=O)c1ccc(OC)c(OC)c1 [5d, (Z)-Butyl 3-(4-Chlorophenyl)-2-(3,4-dimethoxybenzamido)acrylate] | 45.9 ± 1.02 | IC50 [1, 6]: 45.8 µM |
| 57.1 | COC(=O)/C(=C/c1ccc(Cl)cc1)NC(=O)c1ccc(OC)c(OC)c1 [5a, (Z)-Methyl 3-(4-Chlorophenyl)-2-(3,4-dimethoxybenzamido)acrylate] | 4.84 ± 0.19 |  |
| 80.1 | COc1cc(C(=O)N/C(=C\c2ccc(Cl)cc2)C(=O)O)cc(OC)c1OC [4b, (Z)-3-(4-Chlorophenyl)-2-(3,4,5-trimethoxybenzamido)acrylic Acid] | 3.24 ± 0.13 | percentage of cells in G2/M phase (MDA-MB-231 cells [3]; MDA-MB-231, 48 h, compound at its IC50, untreated control 7.35%): 28.08%; cell accumulation at G2/M stage, times higher than untreated control (MDA-MB-231 cells [3]; MDA-MB-231, compound at its IC50): 3.82 times; IC50 [2]: 23.3 ± 0.32 µM; mean tumor selectivity index ([2]; MCF-10A versus MDA-MB-231): 7.2; late-secondary cellular apoptosis (MDA-MB-231 cells [4]; untreated control 0.24%): 12.62%; early primary apoptosis (MDA-MB-231 cells [4]; untreated control 0.69%): 8.09% |
